Measured values reported in the NIST ThermoML archive (doi:10.1021/je900058p).
± gives the expanded uncertainty stated by the source.

Experiments:
[1] = Liquid; for mass density: 293.13 K, 101.33 kPa
[2] = refractive index (Na D-line) (dimensionless); details: 293.13 K; 101.33 kPa; Liquid; Standard Abbe refractometry

| SMILES | mass density [1] [kg/m3] | vapor or sublimation pressure ([1]; 359.51 K) [kPa] | vapor or sublimation pressure ([1]; 379.52 K) [kPa] | vapor or sublimation pressure ([1]; 392.57 K) [kPa] | vapor or sublimation pressure ([1]; 400.69 K) [kPa] | refractive index [2] | vapor or sublimation pressure ([1]; 383.1 K) [kPa] | vapor or sublimation pressure ([1]; 404.24 K) [kPa] | vapor or sublimation pressure ([1]; 417.99 K) [kPa] | vapor or sublimation pressure ([1]; 426.54 K) [kPa] | vapor or sublimation pressure ([1]; 410.86 K) [kPa] |
| --- | --- | --- | --- | --- | --- | --- | --- | --- | --- | --- | --- |
| CCCCC(C)=O [2-hexanone] | 811.2 ± 0.4 | 26.66 ± 0.27 | 53.33 ± 0.32 | 79.99 ± 0.45 | 101.32 ± 0.53 | 1.4008 ± 0.0007 |  |  |  |  |  |
| COc1ccccc1 [anisole] | 994.1 ± 0.2 |  |  |  |  | 1.5171 ± 0.0007 | 26.66 ± 0.25 | 53.33 ± 0.3 | 79.99 ± 0.43 | 101.32 ± 0.5 |  |
| CCCCCO [pentan-1-ol] | 814.5 ± 0.4 |  |  |  |  | 1.4098 ± 0.0007 |  |  |  |  | 101.32 ± 1 |
